Data: ChEMBL document CHEMBL1201862, “PubChem BioAssay data set” (2004)
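1) Cells in 96-well plates. 2) Compound, 48 h, 5 concentrations. 3) Linear interpolation between surrounding doses. 4) Unreached endpoint = highest concentration. GI50 marks 50% less growth.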 Activity calls are given as the source filed them. Cut-off read from the data, not from the text of the source: active = GI50 up to about 1.1 µM and inactive = higher.

Key:
Experiment in all cases: growth of human tumour cells (NCI), 48 h
UO-31 = system: UO-31
KM12 = system: KM12
COLO 205 = system: COLO 205
HOP-62 = system: HOP-62
HOP-92 = system: HOP-92
OVCAR-8 = system: OVCAR-8
ACHN = system: ACHN
OVCAR-3 = system: OVCAR-3
KM-20L2 = system: KM-20L2
HCT-15 = system: HCT-15
NCI-H522 = system: NCI-H522
RXF 393 = system: RXF 393
DMS-273 = system: DMS-273
TK-10 = system: TK-10
IGROV-1 = system: IGROV-1
OVCAR-4 = system: OVCAR-4
CCRF-CEM = system: CCRF-CEM
786-0 = system: 786-0
M14 = system: M14
XF498 = system: XF498
DLD-1 = system: DLD-1
LOX IMVI = system: LOX IMVI
DMS-114 = system: DMS-114
HL-60 = system: HL-60
UACC-62 = system: UACC-62
NCI-H460 = system: NCI-H460
SF-268 = system: SF-268
NCI-H226 = system: NCI-H226
MOLT-4 = system: MOLT-4
SK-MEL-5 = system: SK-MEL-5
A549 = system: A549
OVCAR-5 = system: OVCAR-5
CAKI-1 = system: CAKI-1
SR = system: SR
A498 = system: A498
NCI-H23 = system: NCI-H23
Malme-3M = system: Malme-3M
LXFL 529 = system: LXFL 529
SK-MEL-28 = system: SK-MEL-28
UACC-257 = system: UACC-257
SK-MEL-2 = system: SK-MEL-2
HCT-116 = system: HCT-116
HOP-18 = system: HOP-18
SNB-78 = system: SNB-78
K562 = system: K562
SF-539 = system: SF-539
HT-29 = system: HT-29
SN12C = system: SN12C
SNB-19 = system: SNB-19
SF-295 = system: SF-295
M19-MEL = system: M19-MEL
EKVX = system: EKVX
U-251 = system: U-251
SNB-75 = system: SNB-75
RPMI-8226 = system: RPMI-8226
SW-620 = system: SW-620

With Cn1c(=O)c2c3ccccc3c(C(=O)c3ccccc3)n2c2ccccc21 the GI50 (UO-31) was > 52.7 µM (inactive), the GI50 (KM12) was 2.44 µM (inactive) and the GI50 (COLO 205) was 5.51 µM (inactive). The GI50 (HOP-62) was > 42.8 µM (inactive), the GI50 (HOP-92) was 3.84 µM (inactive) and the GI50 (OVCAR-8) was 16.4 µM (inactive). The GI50 (ACHN) was 24 µM (inactive), the GI50 (OVCAR-3) was 2.94 µM (inactive) and the GI50 (KM-20L2) was 3.8 µM (inactive). The GI50 (HCT-15) was 3.4 µM, the GI50 (NCI-H522) was 3.33 µM (inactive) and the GI50 (RXF 393) was 14.7 µM (inactive). The GI50 (DMS-273) was 3.27 µM (inactive), the GI50 (TK-10) was > 43.7 µM (inactive) and the GI50 (IGROV-1) was > 100 µM (inactive). For the same molecule, the GI50 (OVCAR-4) was 22.6 µM (inactive), the GI50 (CCRF-CEM) was 9.82 µM (inactive) and the GI50 (786-0) was 10.3 µM (inactive). For the same molecule, the GI50 (M14) was 8.55 µM (inactive), the GI50 (XF498) was > 50.9 µM (inactive) and the GI50 (DLD-1) was 8.24 µM (inactive). The GI50 (LOX IMVI) was 9.64 µM (inactive), the GI50 (DMS-114) was 3.67 µM (inactive) and the GI50 (HL-60) was 4.65 µM (inactive). The GI50 (UACC-62) was 4.02 µM (inactive), the GI50 (NCI-H460) was 3.48 µM (inactive) and the GI50 (SF-268) was 20 µM (inactive). For the same molecule, the GI50 (NCI-H226) was > 56.1 µM (inactive), the GI50 (MOLT-4) was 3.94 µM (inactive) and the GI50 (SK-MEL-5) was 6.08 µM (inactive). For the same molecule, the GI50 (A549) was 56.8 µM (inactive), the GI50 (OVCAR-5) was 17.3 µM (inactive) and the GI50 (CAKI-1) was > 26.8 µM (inactive). For the same molecule, the GI50 (SR) was 2.45 µM (inactive), the GI50 (A498) was 7.31 µM (inactive) and the GI50 (NCI-H23) was 23.3 µM (inactive). The GI50 (Malme-3M) was 5.62 µM (inactive), the GI50 (LXFL 529) was > 24.5 µM (inactive) and the GI50 (SK-MEL-28) was 17.8 µM (inactive). The GI50 (UACC-257) was > 100 µM (inactive), the GI50 (SK-MEL-2) was 15.5 µM (inactive) and the GI50 (HCT-116) was 4.12 µM (inactive). For the same molecule, the GI50 (HOP-18) was 18.7 µM (inactive), the GI50 (SNB-78) was 63.2 µM (inactive) and the GI50 (K562) was 4.08 µM (inactive). The GI50 (SF-539) was 16.3 µM (inactive), the GI50 (HT-29) was 3.63 µM (inactive) and the GI50 (SN12C) was 9.33 µM (inactive). The GI50 (SNB-19) was > 43.3 µM (inactive), the GI50 (SF-295) was 5.69 µM (inactive) and the GI50 (M19-MEL) was 3.68 µM (inactive). For the same molecule, the GI50 (EKVX) was > 89.3 µM (inactive), the GI50 (U-251) was 18.9 µM (inactive) and the GI50 (SNB-75) was 3.18 µM (inactive). For the same molecule, the GI50 (RPMI-8226) was 3.55 µM (inactive) and the GI50 (SW-620) was 5.78 µM (inactive).
